Test results: patent publication US20260217983A1, “SULFONIUM SALT PHOTOINITIATORS AND METHODS OF LED CURING A COMPOSITION WITH SAID SULFONIUM SALT PHOTOINITIATORS” (ARKEMA FRANCE, priority 2022, published 2026)
“Also recorded” adds a separate entry of the source.

What was measured:
[1] = 3D printability in hybrid system on 405 nm DLP printers; settings: hybrid formulations of Table 23
[2] = Belt curing performance (thumb-twist depth cure) in UViCure S105E resin; settings: 24 μm film, under air, PI 2 wt %
Protocol: (§1) The photoinitiators were dissolved either in neat UViCure S105E resin or a hybrid acrylate/epoxy resin (prepared by mixing 60 wt parts UViCure S105E, 15 wt parts UViCure S130 and 25 wt parts SR492; all product are available from Sartomer). Formulations were prepared by combining all materials in the given proportions and then stirring at 30-40° C. until the samples were fully homogeneous; the formulations were then allowed to cool to room temperature. For all experiments, the formulations were cured on Leneta Form 3N-31 gloss finish paper at 6 μm and 24 μm film thickness using a belt-cure instrument; the films were prepared using a K-bar. All films were then cured under an LED lamp at a given belt speed. ‘Depth cure’ for each formulation was assessed using the ‘thumb-twist’ test (where no visible mark is made when a thumb is pressed down firmly onto the coating with a twisting motion), and from the belt speed; the calculated cure speed (in m/min) is given.

[3] = Belt curing performance (thumb-twist depth cure) in hybrid acrylate/epoxy resin; settings: 24 μm film, under air, PI 2 wt %
Protocol: as §1

[4] = Transmittance at 0.01% w/v in propylene carbonate; assay type: physicochemical
Protocol: The samples were prepared at 0.01% w/v in propylene carbonate.

[5] = Solubility in propylene carbonate at ambient temperature; assay type: physicochemical; settings: 20-25° C.
Protocol: Solubility of selected sulfonium salts in propylene carbonate at ambient temperature (20-25° C.) was determined.

[6] = UV Vis spectra measurement; assay type: physicochemical; settings: 10 ppm in acetonitrile
Description: UV-Vis spectrum of each sample was taken with a Shimadzu UV1800 spectrophotometer using a 1.0 cm path of cuvette quartz cell in accordance with ASTM E169-04, and scanning the spectrum over the wavelength range of 450 to 200 nm.

[7] = FTIR-ATR cure test of cationic formulations (epoxide, oxetane conversion, 1100 cm^-1 peak growth); settings: 405 nm, cationic systems
Protocol: Matrixes: In a 1000 mL of metal can, formulation matrix was charged according to the percentage in Table 12. The 1000-1005 g mixture of each matrix sample was prepared and mixed by mechanical mixer for about 1 hour around 60° C. until the solution became clear. Formulations: In a white max 50 jar from FlackTek Inc., photoinitiator and propylene carbonate were loaded at first, mixed by hand with stainless steel spatula, placed in 60° C. oven for about 1 h, mixed again until it became clear. Then, formulation matrix was charged according to the percentage in one of Table 13 to 21. The […]-52.60 g mixture of each sample was prepared and mixed for 3 minutes at 3000 RPM in Speed Mixer from FleackTec Inc. Then, all jars were placed in 60° C. oven for about 2 h, taken out and immediately mixed for another 2 minutes until the solution became clear.
A Fourier Transform Infrared (FTIR) with an Attenuated Total Reflection (ATR) setup was used. All polymerization rate measurements were performed using Nicolet iS50 FT-IR Spectrometer from Thermo Scientific, equipped with a standard DLaTGS detector. A lamp holder for the ART platform of FTIR unit can be customized and printed from Arkema N3xtDimention® engineered resin N3D-TOUGH784 in order to ensure precisely fit of a 365 nm lamp Accucure ULM-2-365 or a 405 nm lamp Accucure ULM-2-405 from Digital Light Labs. On the bottom of this lamp holder, a dry air channel is built in to allow air uniformly blowing over sample surface, the gas flow rate can be controlled over a rotameter. The LED light was manually triggered by Ultraviolet illumination & Measurement System. LED light exposure can be programed by AccuCure software. For measurement, 25 μL of liquid sample was placed in the center of an ATR crystal. 3 mil of thin film was prepared by a customized coating applicator (3 mil WFM, G1046 from BYK). The LED lamp with holder was place on the top of ART platform. Then FTIR scan was initiated to collect liquid IR spectrum at first. Each IR spectrum of a specific exposure time at 10 mW/cm^2 of LED light were collected. Measurements of acrylate conversion were taken at the peak height under the reference peak around 1727 cm^−1; the acrylate peak of SR833S at approximately 1407 cm^−1, the epoxide peak of UviCure S105 at approximately 790 cm^−1, and the oxetane peak of UViCure S130 at approximately 970 cm^−1 were also measured. Since the ring opening of both epoxide and oxetane generated C—O—C bond, the growth of C—O—C IR peak height at ~1100 cm^−1 was monitored as well. The resulting of peak 1100 cm^−1 growth rate could be calculated to assess total cationic cure speed. Peak heights were determined using the same baseline where a baseline is chosen to be the two lowest points between 600 cm^−1 and 1800 cm^−1. The peak height under the peak and above the baseline was then determined. The integration limits for liquid and the cured sample are not identical but are similar, especially for the reference peak.
The ratios of the acrylate peak height, epoxide peak height, ring opening peak height from both epoxide and oxetane to the reference peak height were determined for both the liquid and the cured samples. Degree of cure or conversion or peak growth rate, expressed as percentage reacted acrylate or epoxide or ring opening of both epoxide and oxetane, was calculated from the equation below: […]
Where Rliq is the peak height ratio of the liquid sample and Rc is the peak height ratio of the LED cured sample. The resulting acrylate and epoxide conversions or C—O—C growth rates were collected and listed in Tables 13 to 21, plotted in FIG. 1 to 8 and FIG. 10.

[8] = LED 365 nm, 100% intensity (=70.1 mJ/cm^2), belt speed 40 m/min

Structure (SMILES): CC(C)c1ccc2c(c1)c(=O)c1ccccc1[s+]2-c1ccc(-c2ccccc2)cc1 (centres unmarked) [Omnicat 550, 10-[1,1′-Biphenyl]-4-yl-2-(1-methylethyl)-9-oxo-9H-thioxanthenium hexafluorophosphate, reference compound]
- printability on 405 nm DLP printers [1]: not printable even with over exposure time
- Cure speed in UViCure S105E resin [2, 8]: 5.0 m/min
- Cure speed in UViCure S105E resin ([2]; LED 395 nm, 40 m/min, 100% intensity (=164.5 mJ/cm^2)): 8.0 m/min
- Cure speed in hybrid acrylate/epoxy resin [3, 8]: 5.7 m/min
- Cure speed in hybrid acrylate/epoxy resin ([3]; LED 395 nm, 80 m/min, 50% intensity (=36.9 mJ/cm^2)): 10.5 m/min
- % Transmittance at 355 nm [4]: 86.8%
- % Transmittance at 420 nm [4]: 99.1%
- Solubility in propylene carbonate [5]: 25 wt %

Structure (SMILES): CC(C)(C)c1ccc([I+]c2ccc(C(C)(C)C)cc2)cc1 [Speedcure 938, Bis (4-tert-butylphenyl) iodonium hexafluorophosphate, reference compound]
- UV absorption over 310 nm wavelength [6]: did not have any absorption at all

Structure (SMILES): COC(OC)(C(=O)c1ccccc1)c1ccccc1 [Speedcure BKL, 2,2-dimethoxy-1,2-diphenylethan-1-one, reference compound]
- effect of radical photoinitiator on cationic photopolymerization [7]: Neither radical photoinitiator BKL nor TPO-L could promote cationic photopolymerization

Structure (SMILES): CCOP(=O)(C(=O)c1c(C)cc(C)cc1C)c1ccccc1 (centres unmarked) [Speedcure TPO-L, Ethyl(2,4,6-trimethylbenzoyl)phenyl phosphinate, reference compound]
- effect of radical photoinitiator on cationic photopolymerization [7]: Neither radical photoinitiator BKL nor TPO-L could promote cationic photopolymerization; also recorded: slowed down the most
